Measurements published in patent US8895509B2, “MIR-200 family induces mesenchymal-to-epithelial transition (MET) in ovarian cancer cells” (Georgia Tech Research Corporation, priority 2010, dated 2014).

Key:
HEY cells [1] = assay: microarray profiling (Affymetrix HG-U133 Plus 2.0) of miR-429 transfected HEY cells; type: cell-based, human; settings: for Fold-change: miR-429 transfected HEY cells
Description: 6×10^4 cells per well were seeded in 24-well plates. After 24 h, cells were transfected with 30 nM of miR-429 and miR-320 miRNA oligonucleotides (Ambion, Austin, Tex.) using Lipofectamine 2000 reagent (Invitrogen, Carlsbad, Calif.). The Ambion Pre-miRNA Precursor Negative Control was used as a control. Three days after transfection, cells were split and transfected again. This process was repeated every 3 days until 21 days when cells were assayed for response.
Microarray analyses were performed using the Affymetrix system (HG-U133 Plus 2.0; Santa Clara, Calif.) as previously described [Bowen et al., BMC Med Genomics 2009, 2:71]. Briefly, the expression data were analyzed using MAS 5.0 Statistical Algorithm encoded in the Affymetrix Expression Console application. The expression values were normalized across samples by Z-score calculation using Spotfire Decision Site software. […] Gene enrichment analyses were carried out using GeneGO (http://www.genego.com/) gene ontology software.

HEY cells [2] = assay: sensitivity of transfected HEY cells to cisplatin; type: cell-based, human; settings: miR-429 vs negative control miRNA
Description: Cultures of the mesenchymal HEY cells were transfected with a negative control (NC) miRNA or miR-429 using Lipofectamine 2000 (Invitrogen) and treated with increasing concentrations of cisplatin. (0.1, 0.5, 1, 3, 5, 7, 10, 15, 20, 30, 50 μM).

[3] = miR-429 transfected cells vs controls, p<0.015, fold change 1.5

With “miR-429: miR-200 family member; mature miRNA UAAUACUGUCUGGUAAAACCGU (SEQ ID NO: 6); miRNA oligonucleotide (Ambion) transfected at 30 nM (listed as RNA, chemistry not given here; listed as Homo sapiens) [miR-200 family member; miRNA oligonucleotide (Ambion) transfected at 30 nM]” the “Fold change (miR-429 transfected HEY cells relative to negative controls)” value (HEY cells [1]; gene LOC148987) was −3.07, the “Fold change (miR-429 transfected HEY cells relative to negative controls)” value (HEY cells [1]; gene LOC158381) was −7.31 and the “Fold change (miR-429 transfected HEY cells relative to negative controls)” value (HEY cells [1]; gene LOC284561) was −38.32. The “Fold change (miR-429 transfected HEY cells relative to negative controls)” value (HEY cells [1]; gene LOC286178) was −10.56, the Fold-change (HEY cells [1]; gene LOC339290) was −1.87 and the “Fold change (miR-429 transfected HEY cells relative to negative controls)” value (HEY cells [1]; gene LOC401497) was −9.19. The “Fold change (miR-429 transfected HEY cells relative to negative controls)” value (HEY cells [1]; gene LOC439949) was −2.48, the “Fold change (miR-429 transfected HEY cells relative to negative controls)” value (HEY cells [1]; gene LRP4) was −2.66 and the “Fold change (miR-429 transfected HEY cells relative to negative controls)” value (HEY cells [1]; gene MARS) was −6.59. For the same substance, the “Fold change (miR-429 transfected HEY cells relative to negative controls)” value (HEY cells [1]; gene MARS2) was −2.50, the “Fold change (miR-429 transfected HEY cells relative to negative controls)” value (HEY cells [1]; gene MERTK) was −3.03 and the “Fold change (miR-429 transfected HEY cells relative to negative controls)” value (HEY cells [1]; gene MGC16121) was −3.46. For the same substance, the “Fold change (miR-429 transfected HEY cells relative to negative controls)” value (HEY cells [1]; gene MRAP) was −3.05, the “Fold change (miR-429 transfected HEY cells relative to negative controls)” value (HEY cells [1]; gene NAV3) was −4.35 and the “Fold change (miR-429 transfected HEY cells relative to negative controls)” value (HEY cells [1]; gene NOC2L) was −26.91. For the same substance, the “Fold change (miR-429 transfected HEY cells relative to negative controls)” value (HEY cells [1]; gene OSTM1) was −4.35, the “Fold change (miR-429 transfected HEY cells relative to negative controls)” value (HEY cells [1]; gene PAPPA2) was −23.75 and the “Fold change (miR-429 transfected HEY cells relative to negative controls)” value (HEY cells [1]; gene PCK2) was −4.44. The “Fold change (miR-429 transfected HEY cells relative to negative controls)” value (HEY cells [1]; gene PCOTH) was −13.93, the “Fold change (miR-429 transfected HEY cells relative to negative controls)” value (HEY cells [1]; gene PHGDH) was −3.78 and the “Fold change (miR-429 transfected HEY cells relative to negative controls)” value (HEY cells [1]; gene PITX2) was −2.45. For the same substance, the Fold-change (HEY cells [1]; gene PRTG) was −1.61, the “Fold change (miR-429 transfected HEY cells relative to negative controls)” value (HEY cells [1]; gene PSAT1) was −6.92 and the “Fold change (miR-429 transfected HEY cells relative to negative controls)” value (HEY cells [1]; gene PTPN13) was −3.10. The “Fold change (miR-429 transfected HEY cells relative to negative controls)” value (HEY cells [1]; gene PYGO1) was −3.61, the Fold-change (HEY cells [1]; gene RDH10) was −2.08 and the “Fold change (miR-429 transfected HEY cells relative to negative controls)” value (HEY cells [1]; gene RGMB) was −2.89. For the same substance, the “Fold change (miR-429 transfected HEY cells relative to negative controls)” value (HEY cells [1]; gene RPL22L1) was −2.45, the Fold-change (HEY cells [1]; gene SENP5) was −1.80 and the “Fold change (miR-429 transfected HEY cells relative to negative controls)” value (HEY cells [1]; gene SESN2) was −3.61. The “Fold change (miR-429 transfected HEY cells relative to negative controls)” value (HEY cells [1]; gene SGSH) was −2.57, the “Fold change (miR-429 transfected HEY cells relative to negative controls)” value (HEY cells [1]; gene SH3PXD2B) was −5.13 and the “Fold change (miR-429 transfected HEY cells relative to negative controls)” value (HEY cells [1]; gene SHANK2) was −10.85. For the same substance, the Fold-change (HEY cells [1]; gene SHMT2) was −2.04, the “Fold change (miR-429 transfected HEY cells relative to negative controls)” value (HEY cells [1]; gene SLC1A4) was −4.32 and the “Fold change (miR-429 transfected HEY cells relative to negative controls)” value (HEY cells [1]; gene SLC1A5) was −3.01. For the same substance, the “Fold change (miR-429 transfected HEY cells relative to negative controls)” value (HEY cells [1]; gene SLC7A11) was −5.46, the “Fold change (miR-429 transfected HEY cells relative to negative controls)” value (HEY cells [1]; gene SLC24A3) was −10.20 and the “Fold change (miR-429 transfected HEY cells relative to negative controls)” value (HEY cells [1]; gene SLC27A4) was −6.23. For the same substance, the “Fold change (miR-429 transfected HEY cells relative to negative controls)” value (HEY cells [1]; gene SNORA68) was −14.52, the “Fold change (miR-429 transfected HEY cells relative to negative controls)” value (HEY cells [1]; gene SRCAP) was −2.43 and the Fold-change (HEY cells [1]; gene STARD13) was −1.78. For the same substance, the “Fold change (miR-429 transfected HEY cells relative to negative controls)” value (HEY cells [1]; gene SYF2) was −12.64, the “Fold change (miR-429 transfected HEY cells relative to negative controls)” value (HEY cells [1]; gene SYT11) was −2.66 and the Fold-change (HEY cells [1]; gene TIGD1) was −2.38. For the same substance, the “Fold change (miR-429 transfected HEY cells relative to negative controls)” value (HEY cells [1]; gene TLR1) was −15.24, the “Fold change (miR-429 transfected HEY cells relative to negative controls)” value (HEY cells [1]; gene TMEM156) was −2.79 and the “Fold change (miR-429 transfected HEY cells relative to negative controls)” value (HEY cells [1]; gene TMEM201) was −5.58. For the same substance, the Fold-change (HEY cells [1]; gene TSGA14) was −2.33, the “change in expression by microarray” value (HEY cells [1]; gene TSPAN13 (epithelial marker)) was “up-regulated” and the Fold-change (HEY cells [1]; gene WDR43) was −1.88. For the same substance, the “Fold change (miR-429 transfected HEY cells relative to negative controls)” value (HEY cells [1]; gene YARS) was −2.45, the Fold-change (HEY cells [1]; gene ZBTB24) was −1.87 and the “change in expression by microarray” value (HEY cells [1]; gene ZEB2) was “did not display a significant change in expression”. The “Fold change (miR-429 transfected HEY cells relative to negative controls)” value (HEY cells [1]; gene ZNF30) was −2.62, the Fold-change (HEY cells [1]; gene ZNF697) was −1.91 and the “Fold change (miR-429 transfected HEY cells relative to negative controls)” value (HEY cells [1]; gene hCG_1654703) was −7.46. The “number of genes significantly down regulated” value (HEY cells [1]; [3]) was 296 genes, the “number of genes significantly up regulated” value (HEY cells [1]; [3]) was 373 genes and the “number of genes displaying significant changes in expression” value (HEY cells [1]; miR-429 transfected cells vs negative control) was 669 genes. The sensitivity to cisplatin (HEY cells [2]) was “increased significantly”.
